This note sets out measurements from ChEMBL document CHEMBL4385598, “A comprehensive review of topoisomerase inhibitors as anticancer agents in the past decade” (Eur J Med Chem, 2019).

Assay [1] has as its system HeLa. Description: Cytotoxicity against human HeLa cells assessed as reduction in cell growth incubated for 48 hrs by SRB assay. Format: functional, cell-based. In general terms: In SRB staining, fixed cells bind dye roughly in proportion to their protein.
Assay [2] relates to Ca-Ski. As to the kind of experiment: Cytotoxicity against human CaSki cells assessed as reduction in cell growth incubated for 48 hrs by SRB assay. The class given is functional, cell-based.
In assay [3] the test system is HL-60. As to the kind of experiment: Antitumor activity against human HL60 cells assessed as reduction in cell viability by MTT assay. Format: functional, cell-based.
Assay [4] relates to L1210. Description: Antitumor activity against mouse L1210 cells assessed as reduction in cell viability by MTT assay. The class given is functional, cell-based. On the technique in general: Tetrazolium dyes change colour on reduction, which living cells bring about.
The subject of assay [5] is T47D. Description: Cytotoxicity against human T47D cells assessed as reduction in cell growth preincubated for 4 hrs in FBS starvation condition followed by incubation for 2 days by CCK8-based cell counting method. Format: functional.
In assay [6] the test system is A549. As to the kind of experiment: Cytotoxicity against human A549 cells assessed as reduction in cell viability incubated for 24 hrs by MTT assay. The class given is functional, cell-based. As to conditions: A549, 24 h.
The target of assay [7] is T1, DNA topoisomerase I (Bos taurus) (UniProt F1MN93).
T1 sequence (whole entry): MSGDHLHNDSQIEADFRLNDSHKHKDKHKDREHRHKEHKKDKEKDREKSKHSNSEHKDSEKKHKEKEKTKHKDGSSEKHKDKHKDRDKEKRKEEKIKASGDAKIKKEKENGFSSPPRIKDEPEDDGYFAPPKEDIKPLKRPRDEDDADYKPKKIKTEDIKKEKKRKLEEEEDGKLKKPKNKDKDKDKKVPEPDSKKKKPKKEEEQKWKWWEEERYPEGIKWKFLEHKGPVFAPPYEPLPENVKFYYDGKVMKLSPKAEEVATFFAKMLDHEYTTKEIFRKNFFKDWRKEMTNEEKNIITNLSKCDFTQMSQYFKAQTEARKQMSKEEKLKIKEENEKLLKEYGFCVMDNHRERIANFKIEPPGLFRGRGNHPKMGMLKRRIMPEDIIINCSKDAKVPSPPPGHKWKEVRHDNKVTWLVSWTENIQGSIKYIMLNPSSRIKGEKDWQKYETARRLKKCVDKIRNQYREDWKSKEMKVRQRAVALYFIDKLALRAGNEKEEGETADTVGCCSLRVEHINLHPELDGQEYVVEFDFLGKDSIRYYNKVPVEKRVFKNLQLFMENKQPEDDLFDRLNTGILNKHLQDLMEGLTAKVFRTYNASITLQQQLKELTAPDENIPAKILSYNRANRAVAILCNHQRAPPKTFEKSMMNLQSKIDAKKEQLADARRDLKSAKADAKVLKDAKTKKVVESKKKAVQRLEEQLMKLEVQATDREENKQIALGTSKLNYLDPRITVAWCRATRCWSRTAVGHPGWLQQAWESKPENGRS
Description: Inhibition of calf thymus DNA topoisomerase 1 using supercoiled pBR322 plasmid DNA as substrate at 20 uM after 30 mins by agarose gel electrophoresis method relative to control.

Assay [8] addresses DNA topoisomerase 2-alpha (Homo sapiens) (UniProt P11388). Description: Inhibition of human DNA topoisomerase 2 using supercoiled pBR322 plasmid DNA as substrate at 20 uM after 30 mins by agarose gel electrophoresis method relative to control.
Assay [9] concerns HCT-116. As to the kind of experiment: Cytotoxicity against human HCT116 cells assessed as reduction in cell growth by WST-1 assay. The class given is functional, cell-based.
Assay [10] concerns HeLa. Description: Antiproliferative activity against human HeLa cells assessed as reduction in cell growth incubated for 48 hrs by MTT assay. The class given is functional, cell-based.
Assay [11] concerns K562/A02. As to the kind of experiment: Antiproliferative activity against human K562/A02 cells assessed as reduction in cell growth incubated for 48 hrs by MTT assay. Format: functional, cell-based. The note with it: K562/A02, 48 h.
Assay [12] relates to K562. As to the kind of experiment: Antiproliferative activity against human K562 cells assessed as reduction in cell growth incubated for 48 hrs by MTT assay. Format: functional, cell-based. As to conditions: K562, 48 h.

pIC50: −log10 of the molar value. Bounds are passed on as bounds.

Sequence of DNA topoisomerase 2-alpha (Homo sapiens) (P11388 whole entry): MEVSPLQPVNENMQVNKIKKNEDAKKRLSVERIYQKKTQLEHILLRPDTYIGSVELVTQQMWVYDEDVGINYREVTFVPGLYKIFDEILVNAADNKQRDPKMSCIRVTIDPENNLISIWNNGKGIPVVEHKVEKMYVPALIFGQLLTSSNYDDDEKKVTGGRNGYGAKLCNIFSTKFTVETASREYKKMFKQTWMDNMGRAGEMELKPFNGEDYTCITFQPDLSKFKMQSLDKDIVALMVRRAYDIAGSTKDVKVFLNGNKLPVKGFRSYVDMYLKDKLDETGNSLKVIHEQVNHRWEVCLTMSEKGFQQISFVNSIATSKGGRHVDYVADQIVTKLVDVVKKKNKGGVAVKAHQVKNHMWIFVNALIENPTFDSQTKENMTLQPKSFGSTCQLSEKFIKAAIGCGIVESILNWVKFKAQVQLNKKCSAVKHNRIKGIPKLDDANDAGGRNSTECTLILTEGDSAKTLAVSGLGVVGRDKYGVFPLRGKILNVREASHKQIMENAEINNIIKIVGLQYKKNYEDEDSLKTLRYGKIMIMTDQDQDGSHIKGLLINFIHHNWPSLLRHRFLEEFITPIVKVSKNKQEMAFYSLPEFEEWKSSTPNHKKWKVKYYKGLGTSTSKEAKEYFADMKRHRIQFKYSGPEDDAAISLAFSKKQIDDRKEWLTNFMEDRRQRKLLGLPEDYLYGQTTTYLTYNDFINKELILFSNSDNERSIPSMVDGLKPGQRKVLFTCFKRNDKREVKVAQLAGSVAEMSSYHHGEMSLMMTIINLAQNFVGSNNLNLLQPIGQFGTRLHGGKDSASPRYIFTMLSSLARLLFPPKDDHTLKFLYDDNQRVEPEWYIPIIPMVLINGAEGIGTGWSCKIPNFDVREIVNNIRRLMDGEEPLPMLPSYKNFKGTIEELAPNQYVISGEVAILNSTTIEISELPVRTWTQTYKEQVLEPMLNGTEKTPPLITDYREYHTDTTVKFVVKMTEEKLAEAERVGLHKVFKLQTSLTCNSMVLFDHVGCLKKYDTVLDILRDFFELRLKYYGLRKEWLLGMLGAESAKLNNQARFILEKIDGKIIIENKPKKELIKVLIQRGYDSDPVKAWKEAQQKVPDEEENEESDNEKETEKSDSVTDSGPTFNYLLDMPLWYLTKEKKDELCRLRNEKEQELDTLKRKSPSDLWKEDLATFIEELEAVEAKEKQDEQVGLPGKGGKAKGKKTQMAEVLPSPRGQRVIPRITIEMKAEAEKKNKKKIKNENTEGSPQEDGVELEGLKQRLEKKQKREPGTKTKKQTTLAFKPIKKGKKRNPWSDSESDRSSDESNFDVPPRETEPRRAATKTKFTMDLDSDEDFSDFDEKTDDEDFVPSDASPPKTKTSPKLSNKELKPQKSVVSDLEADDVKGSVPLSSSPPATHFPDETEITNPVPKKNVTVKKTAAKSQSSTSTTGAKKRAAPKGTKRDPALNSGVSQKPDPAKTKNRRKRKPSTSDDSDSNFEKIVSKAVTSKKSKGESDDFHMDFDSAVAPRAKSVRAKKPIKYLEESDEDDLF

Usually IC50 stands for the concentration needed to halve the response being measured. As for `COc1cc(CN2CCN(c3ccc(C(F)(F)F)cc3)CC2)c2cc3[n+](cc2c1OC)CCc1cc2c(cc1-3)OCO2.[Cl-]`, the IC50 in [1] and in assay [2] was less than 6 µg/mL in each case. By pIC50 is commonly meant −log10 of the IC50, conventionally taken in molar units. For the compound `O=C(N/N=C/c1ccc(F)cc1)c1cn(C2CC2)c2cc(N3CCNCC3)c(F)cc2c1=O`, the pIC50 in assay [3] and in [4] was no less than 4.60 each time.

As for `COc1cc(CN2CCN(c3cccc(Cl)c3)CC2)c2cc3[n+](cc2c1OC)CCc1cc2c(cc1-3)OCO2.[Cl-]`, the IC50 in assay [1] and in assay [2] was less than 6 µg/mL in each case. Consider `COc1cc(CN2CCN(c3ccc([N+](=O)[O-])cc3)CC2)c2cc3[n+](cc2c1OC)CCc1cc2c(cc1-3)OCO2.[Cl-]`, for which the IC50 in [1] and in assay [2] was less than 6 µg/mL each time. Take `O=C(N/N=C/c1ccc(F)cc1)c1cn(C2CC2)c2cc(N/N=C/c3ccc(F)cc3)c(F)cc2c1=O`: the pIC50 in assay [3] and in assay [4] was no less than 4.60 in each case.

`COc1cc(/C=N/NC(=O)c2cn(C3CC3)c3cc(N/N=C/c4cc(OC)c(OC)c(OC)c4)c(F)cc3c2=O)cc(OC)c1OC`: the pIC50 in assay [3] and in [4] was no less than 4.60 each time.

As to `COc1cc(CN2CCN(c3ccc(F)cc3)CC2)c2cc3[n+](cc2c1OC)CCc1cc2c(cc1-3)OCO2.[Cl-]`, the half-inhibitory concentration (IC50) in assay [1] and in assay [2] was less than 6 µg/mL in each case. With `COc1cc(CN2CCN(c3ccccc3F)CC2)c2cc3[n+](cc2c1OC)CCc1cc2c(cc1-3)OCO2.[Cl-]`, the IC50 in assay [1] and in assay [2] was less than 6 µg/mL each time. In the case of `COc1ccc(/C=N/NC(=O)c2cn(C3CC3)c3cc(N/N=C/c4ccc(OC)cc4)c(F)cc3c2=O)cc1`, the pIC50 in assay [3] and in [4] was no less than 4.60 throughout. For `Oc1cccc(-c2cc(-c3cccc(Cl)c3)cc(-c3cccs3)n2)c1`, the pIC50 in assay [5] was 5.90 to 6.17. For the compound `O=C(N/N=C/c1ccccc1[N+](=O)[O-])c1cn(C2CC2)c2cc(N/N=C/c3ccccc3[N+](=O)[O-])c(F)cc2c1=O`, the pIC50 in assay [3] and in assay [4] was no less than 4.60 throughout. Turning to `O=C(N/N=C/c1ccccc1)c1cn(C2CC2)c2cc(N/N=C/c3ccccc3)c(F)cc2c1=O`, the pIC50 in assay [3] and in assay [4] was no less than 4.60 in each case.

Consider `COc1ccc(/C=N/NC(=O)c2cn(C3CC3)c3cc(N4CCNCC4)c(F)cc3c2=O)cc1`, for which the pIC50 in assay [3] and in [4] was no less than 4.60 throughout. Regarding `Oc1cccc(-c2cc(-c3cccc(Cl)c3)cc(-c3ccsc3)n2)c1`, the pIC50 in [5] was 5.90 to 6.17. The same measure, in the same setting: the figure for `Oc1ccc(-c2cc(-c3ccccc3Cl)cc(-c3ccco3)n2)cc1` is 5.90 to 6.17. With `Oc1cccc(-c2cc(-c3cccc(Cl)c3)cc(-c3ccccc3)n2)c1`, the negative-log IC50 (pIC50) in assay [5] was 5.90 to 6.17.

As for `O=C(N/N=C/c1ccc2c(c1)OCO2)c1cn(C2CC2)c2cc(N/N=C/c3ccc4c(c3)OCO4)c(F)cc2c1=O`, the pIC50 in assay [3] and in [4] was no less than 4.60 in each case. As to `O=C(N/N=C/c1ccccc1)c1cn(C2CC2)c2cc(N3CCNCC3)c(F)cc2c1=O`, the pIC50 in assay [3] and in assay [4] was no less than 4.60 throughout. Turning to `Oc1cccc(-c2cc(-c3ccc(Cl)cc3)cc(-c3ccco3)n2)c1`, the pIC50 in assay [5] is 5.90 to 6.17. As for `O=C(N/N=C/c1ccc2c(c1)OCO2)c1cn(C2CC2)c2cc(N3CCNCC3)c(F)cc2c1=O`, the pIC50 in [3] and in [4] was no less than 4.60 throughout. On to `COc1cc(CN2CCN(c3ccc(Cl)cc3)CC2)c2cc3[n+](cc2c1OC)CCc1cc2c(cc1-3)OCO2.[Cl-]`, for which the IC50 in [1] and in [2] was less than 6 µg/mL throughout. For the compound `CCCCCCCCCCCCCCCC(=O)O` [PALMITIC ACID], in [6], the pIC50 was 3.82. Regarding `Oc1cccc(-c2cc(-c3ccc(Cl)cc3)cc(-c3ccsc3)n2)c1`, in [5], the pIC50 was 5.90 to 6.17. Regarding `COc1ccc(/C=N/NC(=O)c2cn(C3CC3)c3cc(N/N=C/c4ccc(OC)c(O)c4)c(F)cc3c2=O)cc1O`, the negative logarithm of the IC50 (pIC50) in assay [3] and in [4] was no less than 4.60 each time. `COc1ccc(/C=N/NC(=O)c2cn(C3CC3)c3cc(N4CCNCC4)c(F)cc3c2=O)cc1O`: the pIC50 in assay [3] and in assay [4] was no less than 4.60 in each case. `COc1cc(CN2CCN(c3ccccc3[N+](=O)[O-])CC2)c2cc3[n+](cc2c1OC)CCc1cc2c(cc1-3)OCO2.[Cl-]`: the IC50 in assay [1] and in assay [2] was less than 6 µg/mL throughout.

With `O=C(N/N=C/c1ccccc1O)c1cn(C2CC2)c2cc(N/N=C/c3ccccc3O)c(F)cc2c1=O`, the pIC50 in assay [3] and in [4] was no less than 4.60 throughout. For the compound `O=C(N/N=C/c1ccccc1[N+](=O)[O-])c1cn(C2CC2)c2cc(N3CCNCC3)c(F)cc2c1=O`, the pIC50 in assay [3] and in assay [4] was no less than 4.60 in each case. The term inhibition denotes the change of the read-out against control, counted positive when it falls. On to `CCCCC[C@H](O)[C@@H](O)/C=C/[C@@H](O)CCCCCCCC(=O)O`, for which the inhibition in assay [7] worked out at 41%; in assay [8], 97%.

Turning to `CC[C@@]1(O)C(=O)OCc2c1cc1n(c2=O)Cc2cc3ccccc3nc2-1`, in assay [7], the inhibition turned out to be 51%.

For `COc1cc(CN2CCN(c3ccc(C)cc3)CC2)c2cc3[n+](cc2c1OC)CCc1cc2c(cc1-3)OCO2.[Cl-]`, the IC50 in [1] and in assay [2] was less than 6 µg/mL each time. Consider `O=c1c(O)c(-c2cc(O)c(O)c(O)c2)oc2cc(O)cc(O)c12` [MYRICETIN], for which, in assay [9], the pIC50 was 4.55. Take `COc1cc(CN2CCN(c3ccc(OC(F)(F)F)cc3)CC2)c2cc3[n+](cc2c1OC)CCc1cc2c(cc1-3)OCO2.[Cl-]`: the IC50 in [1] and in [2] was less than 6 µg/mL in each case. Turning to `COc1cc([C@@H]2c3cc4c(cc3[C@@H](NC/C=C/c3ccc(CN5CCN(c6ccc([N+](=O)[O-])cc6)CC5)o3)[C@H]3COC(=O)[C@H]23)OCO4)cc(OC)c1OC`, the pIC50 in assay [10] is 5.10; in [11] it was 5.16; in assay [12], 5.19. Consider `O=C(N/N=C/c1ccccc1O)c1cn(C2CC2)c2cc(N3CCNCC3)c(F)cc2c1=O`, for which the pIC50 in assay [3] and in assay [4] was no less than 4.60 throughout. Regarding `COc1cc(/C=N/NC(=O)c2cn(C3CC3)c3cc(N4CCNCC4)c(F)cc3c2=O)cc(OC)c1OC`, the pIC50 in [3] and in [4] was no less than 4.60 in each case.

As for `COc1cc(CN2CCN(c3ccccc3Cl)CC2)c2cc3[n+](cc2c1OC)CCc1cc2c(cc1-3)OCO2.[Cl-]`, the IC50 in assay [1] and in assay [2] was less than 6 µg/mL in each case. For the compound `Oc1cccc(-c2cc(-c3ccc(Cl)cc3)cc(-c3ccccc3)n2)c1`, the pIC50 in assay [5] was 5.90 to 6.17. On to `Oc1cccc(-c2cc(-c3ccccc3Cl)cc(-c3ccccc3)n2)c1`, for which, in assay [5], the pIC50 is 5.90 to 6.17. Still for that read-out and setting: to `Oc1cccc(-c2cc(-c3ccccc3Cl)cc(-c3ccsc3)n2)c1` belongs 5.90 to 6.17; to `Oc1cccc(-c2cc(-c3cccc(Cl)c3)cc(-c3ccco3)n2)c1`, 5.90 to 6.17.
